The source of these data is ChEMBL document CHEMBL1151685, “Structure-activity relationship of antibacterial chalcones” (2008).

What all share (assay type): functional
The test system of one test is Staphylococcus aureus. In words: Antibacterial activity against Staphylococcus aureus ATCC 25923 after 24 hrs by microdilution broth method. To be noted: ATCC 25923, 24 h. A general note: Broth dilution looks for growth in wells or tubes with falling amounts of substance.
A further test deals with Bacillus cereus. In words: Antibacterial activity against Bacillus cereus ATCC 11778 after 24 hrs by microdilution broth method. To be noted: ATCC 11778, 24 h.
Another test concerns Pseudomonas aeruginosa. In words: Antibacterial activity against Pseudomonas aeruginosa ATCC 27853 after 24 hrs by microdilution broth method. The note with it: ATCC 27853, 24 h.
The next test has as its system Escherichia coli. In words: Antibacterial activity against Escherichia coli ATCC 25922 after 24 hrs by microdilution broth method. The note with it: ATCC 25922, 24 h.

Converted amounts (≈) assume the structure as drawn. Some results are limits rather than exact numbers.

Consider `COc1cc(OC)c(OC)cc1/C=C/C(=O)c1cc(OC)c(OC)cc1OC`, for which the MBC (usually the smallest concentration meeting the test's criterion for killing) in the test with Staphylococcus aureus is more than 2000 µg/mL; in the test with Bacillus cereus it was more than 2000 µg/mL; against Pseudomonas aeruginosa, 2000 µg/mL (≈ 5.15 mM); in the test with Escherichia coli it was more than 2000 µg/mL. The MIC (commonly the lowest concentration that inhibits growth of the organism) in the test with Staphylococcus aureus is more than 2000 µg/mL; with Bacillus cereus, more than 2000 µg/mL; with Pseudomonas aeruginosa, 2000 µg/mL (≈ 5.15 mM); against Escherichia coli, more than 2000 µg/mL.
`COc1cc(C(=O)CCc2ccccc2)c(OC)c(CC=C(C)C)c1OC`: the MBC is more than 2000 µg/mL in the test on Staphylococcus aureus, 2000 µg/mL (≈ 5.43 mM) in the test on Bacillus cereus, 2000 µg/mL (≈ 5.43 mM) in the test with Pseudomonas aeruginosa and 2000 µg/mL (≈ 5.43 mM) against Escherichia coli. Besides, the MIC against Staphylococcus aureus, in the test with Bacillus cereus, against Pseudomonas aeruginosa and in the test with Escherichia coli was 2000 µg/mL (≈ 5.43 mM) in each case.
With `COc1ccccc1/C=C/C(=O)c1cc(OC)c(OC)cc1OC`, the MBC amounted to 1000 µg/mL (≈ 3.05 mM) against Staphylococcus aureus, 250 µg/mL (≈ 0.761 mM) with Bacillus cereus, 2000 µg/mL (≈ 6.09 mM) in the test with Pseudomonas aeruginosa and 2000 µg/mL (≈ 6.09 mM) in the test with Escherichia coli. Moreover, the minimal inhibitory concentration (MIC) was determined as 1000 µg/mL (≈ 3.05 mM) with Staphylococcus aureus, 250 µg/mL (≈ 0.761 mM) in the test with Bacillus cereus, 2000 µg/mL (≈ 6.09 mM) in the test on Pseudomonas aeruginosa and 2000 µg/mL (≈ 6.09 mM) in the test with Escherichia coli.
Take `COc1ccc(/C=C/C(=O)c2ccc(OC)cc2)cc1` [4,4'-DIMETHOXYCHALCONE]: the MBC is more than 2000 µg/mL in the test on Staphylococcus aureus, more than 2000 µg/mL with Bacillus cereus, 2000 µg/mL (≈ 7.45 mM) in the test with Pseudomonas aeruginosa and more than 2000 µg/mL against Escherichia coli. Further, the MIC with Staphylococcus aureus was more than 2000 µg/mL; against Bacillus cereus, more than 2000 µg/mL; in the test with Pseudomonas aeruginosa, 2000 µg/mL (≈ 7.45 mM); in the test with Escherichia coli, more than 2000 µg/mL.
